What was measured:
A549 cells [1] = assay: Immunocytochemistry for cell senescence morphology in A549 cells; format: cell-based; conditions: for cell flatness (morphological change of cell senescence): A549, 20 μM each, 72 hours, FIG. 1; for effect of inducing cancer cell-specific cell senescence: summary of chromone scaffold derivatives, FIG. 21
Method: The cells were incubated with Rhodamine Phalloidin (Thermo Fisher, Massachusetts, US) for 4 hours at room temperature. After washing, the cells were incubated with Alexa Fluor 488 (Abcam, Cambridge, UK)-conjugated secondary antibody. Images were analyzed by using EVOS M7000 (Invitrogen, CA, USA). Nuclei were counterstained with DAPI.

H358 cells [2] = assay: CCK-8 cell proliferation assay in H358 cells; format: cell-based; conditions: for inhibition of proliferation: H358, 30 μM or more, 72 hours
Method: (§1) H358 cells were seeded in 96-well plates at a concentration of 3×10^4 cells/well for 24 hours.

PANC1 = assay: CCK-8 cell proliferation assay in PANC1 cells; format: cell-based, human; conditions: for IC50: Homo sapiens, PANC-1, PANC1, CCK-8, 72 hours
A549 cells [3] = assay: TUNEL and 7AAD apoptosis analysis of A549 cells; format: cell-based
Method: The TUNEL analysis was performed by using the TUNEL assay kit (Abcam, ab66110) according to the manufacturer's instructions. […] After 24 hours, the cells were harvested and fixed in cold 70% ethanol, and 50 μL of a DNA labeling solution (10 μL of TdT reaction buffer, […], 8 μL of Br-dUTP, 32.5 μL of ddH2O) was added thereto. After 1-hour incubation at 37° C., the cells were washed twice with 300 μL of rinse buffer, and an antibody solution (5 μL of Anti-BrdU-Red antibody, 95 μL rinse buffer) was prepared and added to the washed cells, and the cells were incubated in the dark at room temperature for 30 minutes. 300 μL of 7-AAD/RNase solution was added at last. Each sample was analyzed by using Accuri C6 Plus (BD Bioscience).

MCF7 = assay: CCK-8 cell proliferation assay in MCF7 cells; format: cell-based; conditions: Homo sapiens; MCF7, CCK-8, 72 hours
PANCI cells = assay: Immunocytochemistry for multinucleation of PANC1 cells; format: cell-based, human; conditions: PANC1, treated by concentration
A549 cells [4] = assay: Mitochondrial membrane potential (TMRE) analysis in A549 cells
H358 cells [5] = assay: Microscopic observation of H358 cells; format: cell-based; conditions: H358, 10 μM, 72 hours
Method: as §1

normal cells = assay: Additional Caspase3/7 analysis in normal cells; format: cell-based, human; conditions: data not shown
A549 cells [6] = assay: Western blot of cell cycle kinases in A549 cells; format: cell-based; conditions: A549, 50 μM, 24 hours
A549 cells [7] = assay: Cell changes of TGFβ-stimulated A549 cells; format: cell-based; conditions: TGFβ-stimulated A549, 10 μM
H1299 cells = assay: Immunocytochemistry for multinucleation of H1299 cells; format: cell-based; conditions: H1299, treated by concentration
PC3 cells [8] = assay: Caspase-3/7 activity (apoptosis) in PC3 cells; format: cell-based, human; conditions: PC3, Caspase-3/7 activity; for PC3 apoptosis: various concentrations
Method: Caspase-3/7 activity was measured by using a Caspase-3/7 assay kit (Promega, G8091). […] Afterwards, Caspase-3/7 activity was analyzed according to the manufacturer's protocol.

A549 cells [9] = assay: NAD+/NADH colorimetric assay in A549 cell lysates; format: cell-based
Method: To this end, total NAD was extracted and quantified from A549 cell lysates by using the NAD+/NADH Colorimetric Assay Kit (Abcam, ab65348) according to the manufacturer's protocol. 1×10^6 cells were lysed in 400 μL NAD/NADH extraction buffer, filtered through a 10 kD spin column (ab93349) and measured in pure water or 1/5 dilution. Briefly, the amount of total NAD was calculated by dividing the standard curve (pmol) by the sample volume (μL) added to the reaction wells and multiplying by the dilution factor.

PC3 cells [10] = assay: Immunocytochemistry for multinucleation of PC3 cells; format: cell-based, human; conditions: PC3, treated by concentration
A549 cells [11] = assay: Intracellular ROS (H2DCFDA) in A549 cells; format: cell-based; conditions: A549, various concentrations, 24 hours
Method: To this end, 1×10^4 cells/mL of A549 cells were dispensed in 96-well plates, and after 24 hours, the cells were treated with 10 μM H2DCFDA (Invitrogen, CA) and incubated at 37° C. in the dark for 1 hour. […] Intracellular ROS were examined by fluorescence microscopy (Thermo, MA) and quantified by fluorescence spectroscopy (Perkin Elmer, MA).

MCF7 cells = assay: Immunocytochemistry for multinucleation of MCF7 cells; format: cell-based, human; conditions: MCF7, treated by concentration
NHLF cells [12] = assay: Mitochondrial membrane potential (MTMP) analysis in NHLF; format: cell-based, human; conditions: for apoptosis in normal cells: measured with MTMP, Caspase3 and LDH, FIG. 20
PC3 = assay: CCK-8 cell proliferation assay in PC3 cells; format: cell-based; conditions: Homo sapiens, PC-3; PC3, CCK-8, 72 hours
A549 cells [13] = assay: Immunocytochemistry of p53, p21 and p16 in A549 cells; format: cell-based
Method: A549 cell line was treated with 1, 5, 10 and 20 μM of the compound of the present invention (ONG41008), respectively, and after 24 or 72 hours, the cells were fixed by using 4% paraformaldehyde, permeabilized with 0.4% TritonX100 and blocked with 1% BSA. The cells were incubated with Anti-p53 (Cell Signaling Technology, Beverly, MA), Anti-p21 (Abcam, Cambridge, UK) and Anti-p16-INK4A (Proteintech, IL, USA) at room temperature for 4 hours. After washing, the cells were incubated with Alexa Fluor 488 (Abcam, Cambridge, UK)-conjugated secondary antibody. Images were analyzed by using EVOS M7000 (Invitrogen, CA, USA). Nuclei were counterstained with DAPI.

A549 cells [14] = assay: PI staining cell cycle analysis of A549 cells; format: cell-based; conditions: A549, 50 μM
Method: After 24 hours, the cells were harvested and fixed in cooled 70% ethanol, and then stained with propidium iodide containing 200 ug/mL RNase (Abcam, 139418) in the dark at 37° C. for 30 minutes. Each phase of the cell cycle was identified by using Accuri C6 Plus (BD Bioscience).

A549 cells [15] = assay: Western blot of p53, phospho-p53, p21 and p16 in A549 cells; format: cell-based
Method: After 24 hours, the cell lysates were clarified by centrifugation at 14,000×g for 10 minutes, and the supernatant was collected. Protein concentration was quantified by Bradford assay (Thermo Fisher, Massachusetts, USA). Afterwards, 25 μg of cellular protein was loaded onto a 10% SDS-PAGE gel and transferred to a nitrocellulose membrane. After blocking with 5% BSA, the membrane was incubated overnight at 4° C. with Anti-p53 (Cell Signaling Technology, Beverly, MA), Anti-phosphor-p53 (Cell Signaling Technology, Beverly, MA), Anti-p21 (Abcam, Cambridge, UK), Anti-p16-INK4A (Proteintech, IL, USA) and Anti-GAPDH (Abcam, Cambridge, UK). After thorough washing, the membrane was incubated with HRP-conjugated secondary antibody. Protein bands were visualized by using ECL reagent (Abfrontier, Korea) and Uvitec HD9 (UVITEC, UK).

[16] = tested on: Normal human lung fibroblasts (NHLF); assay: CCK-8 cell proliferation assay in normal human lung fibroblasts; format: cell-based; conditions: CCK-8, FIG. 19
A549 cells [17] = assay: Immunocytochemistry for cell senescence and multinucleation of A549 cells over time; format: cell-based; conditions: A549, 10 μM
From the text: ZEB1, which is an epithelial-mesenchymal transition (EMT) positive regulator, was used as an expression control.

NHLF cells [18] = assay: Caspase-3 activity assay in NHLF; format: cell-based; conditions: Homo sapiens, read-out: Caspase3: EC 50
Method: (ii) Caspase-3 activity assay was measured by using a Caspase-3 assay kit (Abcam, ab37401). […] Thereafter, protein was measured with BCA (Thermo, 23227), and the protein was adjusted to 50 μg per 50 μL of cell lysis buffer. Afterwards, Caspase-3 activity was analyzed according to the manufacturer's protocol.

NHLF cells [19] = assay: LDH cytotoxicity assay in NHLF; format: cell-based; conditions: Homo sapiens, read-out: LDH: EC 50
Method: (iii) LDH cytotoxicity assay detected LDH release by using an LDH assay kit (Abcam, ab56393). […] Absorbance values were measured at 450 nm in a microplate reader.

[20] = A549, mitochondrial membrane potential analysis

COc1ccc(-c2cc(=O)c3c(O)c(OC)c(O)cc3o2)cc1OC [ONG21001, Eupatilin]
cell flatness (morphological change of cell senescence) (A549 cells [1]): specifically observed

CC(=O)O[C@H]1C(=O)[C@@]2(C)[C@H]([C@H](OC(=O)c3ccccc3)[C@]3(O)C[C@H](OC(=O)[C@H](O)[C@@H](NC(=O)c4ccccc4)c4ccccc4)C(C)=C1C3(C)C)[C@]1(OC(C)=O)CO[C@@H]1C[C@@H]2O [paclitaxel, reference compound]
inhibition of proliferation (H358 cells [2]): inhibited the proliferation of non-small cell lung cancer cells to a similar level
IC50 (PANC1): 84.7 µM

COc1ccc(-c2cc(=O)c3c(O)c(OC)c(OCCN4CCNC(=O)C4)cc3o2)cc1OC [ONG41008]
apoptosis (A549 cells [3]; A549, 48 hours of treatment): apoptosis was observed
apoptosis (A549 cells [3]; A549, 72 hours of treatment): clearly observed in a compound concentration-dependent manner
IC50 (MCF7): 15.4 µM
cell flatness (morphological change of cell senescence) (A549 cells [1]): specifically observed
multinucleation (PANCI cells): observed
difference between IC50 of SAHA and ONG41008 (A549 cells [4]; A549, FIG. 6): ~20 fold
day until which inhibitory effect increased, all cells removed (A549 cells [4]; [20]): 4 days
time at which decrease of cell viability / inhibitory effect started (A549 cells [4]; [20]): 48 h
mitotic disruption (H358 cells [5]): observed
caspase3/7 activity in normal cells (normal cells): did not induce caspase3/7 activity
CDK2 expression (A549 cells [6]): inhibited
CDK6 expression (A549 cells [6]): inhibited
day from which a significant portion of cells started to die (A549 cells [7]): 6 days
day on which complete apoptosis was induced (A549 cells [7]): 15 days
inhibition of proliferation (H358 cells [2]): inhibited the proliferation of non-small cell lung cancer cells to a similar level
difference between IC50 of paclitaxel and ONG41008 (H358 cells [2]; H358, 72 hours, FIG. 9): 14 fold
multinucleation (H1299 cells): observed
IC50 (PANC1): 11.8 µM
inhibitory effect on proliferation compared to paclitaxel (PANC1; PANC1, 10 μM or more): more excellent inhibitory effect
EC50 (PC3 cells [8]; Homo sapiens, PC-3): 20.4 µM
PC3 apoptosis (PC3 cells [8]): induced PC3 apoptosis in a concentration-dependent manner
NAD biosynthesis (A549 cells [9]; A549): increased
NAD/NADH ratio (change) (A549 cells [9]; A549, FIG. 7c): significantly increased
multinucleation (PC3 cells [10]): observed
ROS (A549 cells [11]): increased in a concentration-dependent manner
multinucleation (MCF7 cells): observed
apoptosis in normal cells (NHLF cells [12]): did not induce significant apoptosis
IC50 (PC3): 32 µM
TP53 nuclear localization (A549 cells [13]; A549, 1 μM, 24 hours): nuclear localization was observed
TP53 protein expression level (A549 cells [13]; A549, 1 μM, 24 hours): not changed
p16 expression (A549 cells [13]; A549, 1, 5, 10 and 20 μM, 24 hours): up-regulated in proportion to the concentration
p21 expression and localization (A549 cells [13]; A549, 24 hours): nuclear localized with upregulation
cell cycle arrest (A549 cells [14]): arrest of the G1-S-G2 phase
p16 induction (A549 cells [15]; A549, 24 hours): induced in a concentration-dependent manner
p21 induction (A549 cells [15]; A549, 24 hours): induced in a concentration-dependent manner
total amount of TP53 (A549 cells [15]; A549, 24 hours): maintained to be the same
TP53 phosphorylation (A549 cells [15]; A549, various concentrations, 24 hours): phosphorylated in proportion to the increase in the concentration
cell proliferation of normal cells [16]: did not inhibit cell proliferation
time of treatment with the greatest number of multinucleation (A549 cells [17]): 48 h
cell flattening (A549 cells [17]; 24 hours): clearly confirmed
multinucleation (A549 cells [17]; 24 hours): multinucleation was also observed

COc1c(O)cc2oc(-c3ccc(O)cc3)cc(=O)c2c1O [Histidulin, Hispidulin]
effect of inducing cancer cell-specific cell senescence (A549 cells [1]): do not exert any effect

O=C(CCCCCCC(=O)Nc1ccccc1)NO [SAHA, suberoylanilide hydroxamic acid]
PC3 apoptosis (PC3 cells [8]): induced PC3 apoptosis in a concentration-dependent manner
apoptosis in normal cells (NHLF cells [12]): induced strong apoptosis
cell proliferation of normal cells [16]: inhibited cell proliferation

COC(=O)c1ccc2c(c1)NC(=O)/C2=C(\Nc1ccc(N(C)C(=O)CN2CCN(C)CC2)cc1)c1ccccc1 [nintedanib]
EC50 (NHLF cells [18]): 128 µM
IC50 (NHLF cells [12]; Homo sapiens, read-out: MTMP: IC 50): 41 µM
apoptosis in normal cells (NHLF cells [12]): induced strong apoptosis
EC50 (NHLF cells [19]): 218 µM
cell proliferation of normal cells [16]: inhibited cell proliferation

O=c1cc(-c2ccc(O)cc2)oc2cc(O)cc(O)c12 [Apigenin]
effect of inducing cancer cell-specific cell senescence (A549 cells [1]): does not induce

COc1cc(-c2cc(=O)c3c(O)c(OC)c(O)cc3o2)ccc1O [Jaceocidin, Jaceosidin]
effect of inducing cancer cell-specific cell senescence (A549 cells [1]): do not exert any effect

Source: US20240197722A1, “ANTICANCER COMPOSITION INDUCING CELL SENESCENCE AND CELL DEATH” (OSTEONEUROGEN INC., priority 2021, published 2024)
